Patent publication US20230405028A1 (priority 2020, published 2023)
Read-outs that look alike come from different tables or passages of the source.

Experiments:
IL-8 = IL-8 in HSIEC cells treated with TNF-α/IFN-γ; type: cell-based, human; settings: single agent, escalating doses
[1] = system: Human primary small intestinal epithelial cells (HSIEC)
IL-6 = IL-6 in HSIEC cells treated with TNF-α/IFN-γ; type: cell-based, human; settings: single agent, escalating doses
Method: (§1) Cell Culture: Human primary small intestinal epithelial cells (HSIEC), purchased from Cell Biologics were cultured in Epithelial Cell Medium/w Kit. HSIEC cells were incubated at 37° C. in a humidified atmosphere of 5% CO2. HSIEC cells were treated with mycoplasma removal reagent BM-Cyclin (Roche) to ensure mycoplasma negative before treatment.
Induction of Inflammation in HSIECs and Treatment with Molecules of Interest: HSIEC cells grown to 80% confluence were treated with 10 ng/ml TNF-α/IFN-γ (Sigma) (Yang et al., 2015), for the time points indicated in FIG. 9, to assess the best time point for determination of anti-inflammatory potential of the molecules and formulations of interest. To do so, COX-2, an enzyme which mediates the bioconversion of arachidonic acid to inflammatory prostaglandins (PGs), was measured via densitometry. GAPDH was used as a reference housekeeping marker for relative densitometry measures. […] The anti-inflammatory potential of the molecules and formulations of interest were evaluated at 48 hours post-TNF-α/IFN-γ treatment in the HSIEC assays described below due to reduced variability and ability to assess differences between treatments. Ethanol or DMSO was used, as indicated in the figures, as a vehicle for dilution and as a negative control showing the amount of the inflammatory marker present when inflammation was not induced. […]

COX-2 = COX-2 in HSIEC cells treated with TNF-α/IFN-γ (western blot, densitometry); type: cell-based, human; settings: single agent, escalating doses
Method: as §1
To do so, COX-2, an enzyme which mediates the bioconversion of arachidonic acid to inflammatory prostaglandins (PGs), was measured via densitometry. GAPDH was used as a reference housekeeping marker for relative densitometry measures. […] Ethanol or DMSO was used, as indicated in the figures, as a vehicle for dilution and as a negative control showing the amount of the inflammatory marker present when inflammation was not induced.
Increasing doses of each molecule of interest, or each combination of molecules of interest, were then distributed to the HSIEC cells treated to induce inflammatory response. Inflammatory markers COX-2 and/or IL-6 were assessed at specific timepoints after induction of inflammation for protein content marker measured via western blot. GAPDH was used as a reference housekeeping marker for relative densitometry measures of protein content.

BDNF = BDNF in A-172 cells; type: cell-based; settings: escalating doses
Description: (§2) This experiment was designed to explore the synergistic interaction of 5HT2A agonist and a TRP agonists on receptors in the brain that are associated with depression and/or inflammation. […] The development of an inflammatory microenvironment is considered important to the initiation and progression of glioblastoma; however, therapeutic approaches to target inflammation have previously been limited. The abnormal function of IL-6 and IL-8 has been predicted to lead to glioblastoma.
(§3) Thus, unlike the experiments on HSIEC cells described above, no inflammatory treatment was applied to the A-172 cells. The A-172 cells were grown to […] confluence on T-25 flasks to allow a 96-hour duration of exposure of the cells to the compounds of interest

individuals [2] = assay: Minimum effective dose (MED, MED50) and perceived effects of 5HT2A agonist with or without TRP agonists in individuals; type: in vivo, human
individuals [3] = assay: Surveys of participants using the formulations (music festival, wellness retreat, home use); settings: surveys and self-report
Method: Edible chew and capsule formulations including the Base 07—Complete with coffee beans, the 5HT2A agonist alone with corn starch (positive control) or sugar and placebo formulations including corn starch (negative control) or sugar alone (double negative control) were prepared and provided to small groups of individuals for assessment of the effects of the compositions.
The formulations also included additional GRAS material. […] Some studies were undertaken in the context of a music festival. Other studies were undertaken at psilocybin retreat events. Numerous individuals also self-administered the formulations in their personal space and observed their daily routines over an extended number of days of using the formulations. Exclusion criteria were applied in a questionnaire to exclude individuals with a schizophrenia diagnosis, individuals with a family history of schizophrenia, pregnant individuals, minors and other high-risk categories for using psilocybin.
Typically, between 1 and 9 dosage units were provided to each participant per day. The studies varied in duration from one day to four weeks. Heavier individuals (<75 kg) were typically given larger dosages.
On multiple occasions a standard dose of the chocolate format of the complete recipe was distributed prior to a music festival event in Jamaica. […]

iNOS = iNOS in HSIEC cells treated with TNF-α/IFN-γ; type: cell-based, human; settings: 5, 10, 20, 40 μM
GABA = GABA in A-172 cells; type: cell-based; settings: escalating doses
Description: as §2, §3

A-172 glioblastoma cells = assay: MTT cell viability assay in A-172 cells

Cc1ccc(C(C)C)cc1O [carvacrol]
doses resulting in reduction of IL-8 (IL-8): all doses | effect on cell growth / cellular metabolic activity (MTT, words) [1]: could only be studied at very low dose | Cellular Metabolic Activity ([1]; 5 μM, 24 h): 0.072 | Cellular Metabolic Activity ([1]; 5 μM, 48 h): 0.175 | Cellular Metabolic Activity ([1]; 5 μM, 72 h): 0.261 | Cellular Metabolic Activity ([1]; 5 μM, 96 h): 0.501 | Cellular Metabolic Activity ([1]; 5 μM, time 0): 0.022 | Cellular Metabolic Activity ([1]; 10 μM, 24 h): 0.070 | Cellular Metabolic Activity ([1]; 10 μM, 48 h): 0.164 | Cellular Metabolic Activity ([1]; 10 μM, 72 h): 0.267 | Cellular Metabolic Activity ([1]; 10 μM, 96 h): 0.487 | Cellular Metabolic Activity ([1]; 10 μM, time 0): 0.021 | Cellular Metabolic Activity ([1]; 20 μM, 24 h): 0.071 | Cellular Metabolic Activity ([1]; 20 μM, 48 h): 0.171 | Cellular Metabolic Activity ([1]; 20 μM, 72 h): 0.266 | Cellular Metabolic Activity ([1]; 20 μM, 96 h): 0.461 | Cellular Metabolic Activity ([1]; 20 μM, time 0): 0.022 | Cellular Metabolic Activity ([1]; 40 μM, 24 h): 0.070 | Cellular Metabolic Activity ([1]; 40 μM, 48 h): 0.159 | Cellular Metabolic Activity ([1]; 40 μM, 72 h): 0.272 | Cellular Metabolic Activity ([1]; 40 μM, 96 h): 0.544 | Cellular Metabolic Activity ([1]; 40 μM, time 0): 0.022 | Cellular Metabolic Activity ([1]; 80 μM, 24 h): 0.076 | Cellular Metabolic Activity ([1]; 80 μM, 48 h): 0.120 | Cellular Metabolic Activity ([1]; 80 μM, 72 h): 0.221 | Cellular Metabolic Activity ([1]; 80 μM, 96 h): 0.423 | Cellular Metabolic Activity ([1]; 80 μM, time 0): 0.025 | Cellular Metabolic Activity ([1]; 100 μM, 24 h): 0.069 | Cellular Metabolic Activity ([1]; 100 μM, 48 h): 0.106 | Cellular Metabolic Activity ([1]; 100 μM, 72 h): 0.259 | Cellular Metabolic Activity ([1]; 100 μM, 96 h): 0.397 | Cellular Metabolic Activity ([1]; 100 μM, time 0): 0.026 | Cellular Metabolic Activity ([1]; 200 μM, 24 h): 0.061 | Cellular Metabolic Activity ([1]; 200 μM, 48 h): 0.088 | Cellular Metabolic Activity ([1]; 200 μM, 72 h): 0.179 | Cellular Metabolic Activity ([1]; 200 μM, 96 h): 0.238 | Cellular Metabolic Activity ([1]; 200 μM, time 0): 0.027 | Cellular Metabolic Activity ([1]; 400 μM, 24 h): 0.062 | Cellular Metabolic Activity ([1]; 400 μM, 48 h): 0.079 | Cellular Metabolic Activity ([1]; 400 μM, 72 h): 0.139 | Cellular Metabolic Activity ([1]; 400 μM, 96 h): 0.137 | Cellular Metabolic Activity ([1]; 400 μM, time 0): 0.027 | doses resulting in reduction of IL-6 (IL-6): 10 µM | doses reducing COX-2 to the greatest extent (COX-2): 5 µM

CN(C)CCc1c[nH]c2cccc(OP(=O)(O)O)c12 [psilocybin, 3-[2-(dimethylamino)ethyl]-4-phosphoryloxyindole, reference compound]
doses resulting in the decrease of BDNF (BDNF): 20 µM | reduction in the MED50 with TRP agonists added (individuals [2]; FIGS. 6 to 8): ~60% | MED (dose for 100% of individuals to report a psychoactive effect) (individuals [2]; oral, 70 kg individual): over 0.3 g of dried fruiting bodies | side effects / tolerance / intoxication (individuals [3]): no reports of intoxication or other psychoactive effects to a degree that influenced motor skills or coordination | dose reducing iNOS to the greatest extent (iNOS): 10 µM | effect on cell growth / cellular metabolic activity (MTT, words) [1]: increase growth of cells | Cellular Metabolic Activity ([1]; 5 μM, 24 h): 0.098 | Cellular Metabolic Activity ([1]; 5 μM, 48 h): 0.186 | Cellular Metabolic Activity ([1]; 5 μM, 72 h): 0.380 | Cellular Metabolic Activity ([1]; 5 μM, 96 h): 0.621 | Cellular Metabolic Activity ([1]; 5 μM, time 0): 0.047 | Cellular Metabolic Activity ([1]; 10 μM, 24 h): 0.107 | Cellular Metabolic Activity ([1]; 10 μM, 48 h): 0.198 | Cellular Metabolic Activity ([1]; 10 μM, 72 h): 0.388 | Cellular Metabolic Activity ([1]; 10 μM, 96 h): 0.624 | Cellular Metabolic Activity ([1]; 10 μM, time 0): 0.038 | Cellular Metabolic Activity ([1]; 20 μM, 24 h): 0.150 | Cellular Metabolic Activity ([1]; 20 μM, 48 h): 0.238 | Cellular Metabolic Activity ([1]; 20 μM, 72 h): 0.415 | Cellular Metabolic Activity ([1]; 20 μM, 96 h): 0.635 | Cellular Metabolic Activity ([1]; 20 μM, time 0): 0.038 | Cellular Metabolic Activity ([1]; 40 μM, 24 h): 0.182 | Cellular Metabolic Activity ([1]; 40 μM, 48 h): 0.259 | Cellular Metabolic Activity ([1]; 40 μM, 72 h): 0.467 | Cellular Metabolic Activity ([1]; 40 μM, 96 h): 0.685 | Cellular Metabolic Activity ([1]; 40 μM, time 0): 0.041 | Cellular Metabolic Activity ([1]; 80 μM, 24 h): 0.345 | Cellular Metabolic Activity ([1]; 80 μM, 48 h): 0.371 | Cellular Metabolic Activity ([1]; 80 μM, 72 h): 0.579 | Cellular Metabolic Activity ([1]; 80 μM, 96 h): 0.805 | Cellular Metabolic Activity ([1]; 80 μM, time 0): 0.042 | Cellular Metabolic Activity ([1]; 160 μM, 24 h): 0.523 | Cellular Metabolic Activity ([1]; 160 μM, 48 h): 0.604 | Cellular Metabolic Activity ([1]; 160 μM, 72 h): 0.808 | Cellular Metabolic Activity ([1]; 160 μM, 96 h): 1.099 | Cellular Metabolic Activity ([1]; 160 μM, time 0): 0.042 | dose resulting in the greatest increase of GABA (GABA): 5 µM | Cellular Metabolic Activity (A-172 glioblastoma cells; 5 μM, 24 h): 0.155 | Cellular Metabolic Activity (A-172 glioblastoma cells; 5 μM, 48 h): 0.253 | Cellular Metabolic Activity (A-172 glioblastoma cells; 5 μM, 72 h): 0.374 | Cellular Metabolic Activity (A-172 glioblastoma cells; 5 μM, 96 h): 0.530 | Cellular Metabolic Activity (A-172 glioblastoma cells; 5 μM, time 0): 0.090 | Cellular Metabolic Activity (A-172 glioblastoma cells; 10 μM, 24 h): 0.181 | Cellular Metabolic Activity (A-172 glioblastoma cells; 10 μM, 48 h): 0.269 | Cellular Metabolic Activity (A-172 glioblastoma cells; 10 μM, 72 h): 0.363 | Cellular Metabolic Activity (A-172 glioblastoma cells; 10 μM, 96 h): 0.577 | Cellular Metabolic Activity (A-172 glioblastoma cells; 10 μM, time 0): 0.090 | Cellular Metabolic Activity (A-172 glioblastoma cells; 20 μM, 24 h): 0.201 | Cellular Metabolic Activity (A-172 glioblastoma cells; 20 μM, 48 h): 0.303 | Cellular Metabolic Activity (A-172 glioblastoma cells; 20 μM, 72 h): 0.370 | Cellular Metabolic Activity (A-172 glioblastoma cells; 20 μM, 96 h): 0.636 | Cellular Metabolic Activity (A-172 glioblastoma cells; 20 μM, time 0): 0.082 | Cellular Metabolic Activity (A-172 glioblastoma cells; 40 μM, 24 h): 0.287 | Cellular Metabolic Activity (A-172 glioblastoma cells; 40 μM, 48 h): 0.369 | Cellular Metabolic Activity (A-172 glioblastoma cells; 40 μM, 72 h): 0.457 | Cellular Metabolic Activity (A-172 glioblastoma cells; 40 μM, 96 h): 0.703 | Cellular Metabolic Activity (A-172 glioblastoma cells; 40 μM, time 0): 0.086 | Cellular Metabolic Activity (A-172 glioblastoma cells; 80 μM, 24 h): 0.469 | Cellular Metabolic Activity (A-172 glioblastoma cells; 80 μM, 48 h): 0.528 | Cellular Metabolic Activity (A-172 glioblastoma cells; 80 μM, 72 h): 0.586 | Cellular Metabolic Activity (A-172 glioblastoma cells; 80 μM, 96 h): 0.871 | Cellular Metabolic Activity (A-172 glioblastoma cells; 80 μM, time 0): 0.084 | effect on cell growth (MTT, words) (A-172 glioblastoma cells; A-172, psilocybin 80 μM): modest increase in cell growth
